# Measured values as given in patent US20140242093A1, “METHODS AND COMPOSITIONS FOR MODULATING THE INNATE IMMUNE RESPONSE AND/OR MYOGENESIS IN A MAMMALIAN SUBJECT” (FRED HUTCHINSON CANCER RESEARCH CENTER, priority 2011, published 2014).
# How the values were obtained:
# FSHD muscle cells = experiment: DUX4-fl mRNA RT-PCR in FSHD muscle cells treated with MAO inhibitors; format: cell-based, human; settings: for abundance of DUX4-fl mRNA: quantitative RT-PCR, FIG. 4
# Text: Middle panel is a no RT control and bottom panel is a GAPDH loading control.
# HCT116 cells = experiment: RT-PCR of DUX4-fl and cancer testis antigens in HCT116 cells treated with azacytidine; format: cell-based, human
# Procedure: The relative expression of the CTA in each row was measured by RT-PCR and represented as high (light shading) or low (dark shading).
# FSHD fibroblasts = experiment: DUX4 mRNA decay with cycloheximide in FSHD fibroblasts with inducible MyoD; format: cell-based, human; settings: 38 hours in differentiation conditions, MyoD induction
# Procedure: FSHD fibroblasts expressing low amounds of DUX4 mRNA were stably transduced with a beta-estradiol inducible MyoD so that addition of beta-estradiol will convert them to skeletal muscle, which after 96 hours of induction increases the steady-state levels of the DUX4 mRNA and activates expression of the MyoD target Mgn. […] Washout of the chx results in the rapid loss of the DUX4 mRNA, disappearing between 2 and 8 hrs of washout. The loss of DUX4 mRNA is associated with its translation since the DUX4 target PRAME 1 is induced as the DUX4 mRNA disappears.
# [1] = tested on: control human primary myoblasts; experiment: Expression microarray of primary myoblasts transduced with lentivirus carrying DUX4-fl, DUX4-s or GFP
# Procedure: Primary human myoblasts were collected and cultured as previously described (Snider et al., 2010). Primary myoblasts were maintained at or below 70% confluency for proliferation. For differentiation, cells were allowed to reach 95-100% confluency in growth medium. Once confluency was reached, the cells were changed to differentiation medium (F10 media supplemented with 1% horse serum, 10 μg/mL insulin, and 10 μg/mL transferrin, penicillin/streptomycin) and maintained for 4 days. Human RD cells were grown in DMEM in 10% bovine calf serum (Hyclone) and penicillin/streptomycin. The primary myoblasts were transduced with lentivirus carrying DUX-fl, DUX4- or GFP (MOI=15).
# Expression microarrays were performed on the transduced cells at 24 hours after transduction as follows. […] Samples were analyzed by Illumina Human Whole Genome microarrays. Probe intensities were corrected, normalized, and summarized by the Lumi package of Bioconductor (Du et al., 2008). Differentially expressed genes were identified by the LIMMA package of Bioconductor (Wettenhall and Smyth, 2004). Gene set enrichment analysis (GSEA) was performed using the Bioconductor GOstats package (Falcon and Gentleman, 2007).
# Human FSHD myoblasts = experiment: siRNA knock-down of UPF1 in FSHD myoblasts; format: cell-based
# Procedure: Method for transfection of myoblasts with siUPF1 (siRNA against UPF1): Human FSHD myoblasts were plated for transfection at 30% confluency in F10 media containing 20% FBS and no antibiotics. siRNA targeting siUPF1 (ThermoScientific) was transfected at 100 nM final concentration using Lipofectamine 2000 according to manufacturers protocol. siLuciferase was used as a negative control. Following overnight incubation of cells with transfection complexes the cells were washed with PBS and fed fresh growth media: F10 media, 20% FBS, dexamethasone (1 uM) and fgf (10 ng/ml). When cultures reached confluency growth media was replaced with serum free differentiation media (F10 media, insulin and transferrin at 10 ug/ml each) and culture continued for 48 hours. Total RNA was isolated using Qiagen RNeasy columns and analysis for expression of Dux4 mRNA and for target gene activation was performed.
compound,measurement,setting,value
N[C@@H]1C[C@H]1c1ccccc1 (racemic) [tranylcypromine],abundance of DUX4-fl mRNA,FSHD muscle cells,had no inhibitory effect
Nc1ncn([C@@H]2O[C@H](CO)[C@@H](O)[C@H]2O)c(=O)n1 [5-azacytidine],expression of cancer testis antigens,"HCT116 cells; RT-PCR heat map FIG. 3, HCT116 cells",robust induction
same,DUX4-fl expression,"HCT116 cells; RT-PCR, HCT116 cells",induces the expression of DUX4-fl
C[C@@H]1C[C@@H]([C@H](O)CC2CC(=O)NC(=O)C2)C(=O)[C@@H](C)C1 [cycloheximide],DUX4 mRNA,FSHD fibroblasts,significant increase in DUX4 mRNA
"C#CCN(C)Cc1ccccc1 [pargyline, N-Benzyl-N-methylprop-2-yn-1-amine]",DUX4 mRNA expression,"FSHD muscle cells; RT-PCR, 48 hours in differentiation medium, varying amounts, FIG. 5",dose-dependent inhibition of DUX4 expression
same,abundance of DUX4-fl mRNA,FSHD muscle cells,decreases the abundance of DUX4-fl mRNA in a dose-dependent manner
DUX4,Fc range,"[1]; Family with sequence similarity 90: FAM90A1, FAM90A2P, FAM90A6P, FAM90A7",9-19
same,Fc range,"[1]; KH homology domain containing family: KHDC1, KHDC1L",108-258
same,Fc range,"[1]; Methyl-binding protein-like family: MBD3L2, MBD3L3, MBD3L5",197-310
same,Fc range,"[1]; Preferentially expressed in melanoma family: PRAMEF1, PRAMEF2, PRAMEF4-15, PRAMEF17, PRAMEF20",9-269
same,Fc range,"[1]; Ret-finger Protein-like family: RFPL1, RFPL1S, RFPL2, RFPL3, RFPL4A, RFPL4B",20-336
same,Fc range,"[1]; Tripartite motif-containing family: TRIM43, TRIM48, TRIM49, TRIM53, TRIM64",27-235
same,Fc range,"[1]; Zinc finger and SCAN domain containing family: ZSCAN4, ZSCAN5B, ZSCAN5D",13-320
GAUGCAGUUCCGCUCCAUUUU [siUPF1],expression of DUX4 target gene ZSCAN4,Human FSHD myoblasts; RT-qPCR,increases
same,DUX4 mRNA,"Human FSHD myoblasts; semiquantitative RT-PCR, differentiation medium, vs siluc",at higher levels
